Experimental data reported in patent publication US20250353936A1, “CHEMICALLY MODIFIED HEPARIN” (IHP Therapeutics Inc., priority 2022, published 2025).

Tests used:
[1] = tested on: BxPC3-luc, clone 1F11 cells; assay: Gemcitabine sparing pancreatic cancer model, subcutaneous BxPC3-luc tumors; assay type: in vivo, female NSG mice; settings: Compound C 10 mg/kg BID s.c., gemcitabine 25 mg/kg QW i.p., day 7 through day 70; FIG. 4
Description: Methods: Pancreatic cancer tumors were generated by subcutaneous injection of 100 μL of BxPC3-luc, clone 1F11 cells (1×10^6) in matrigel into the right flank of female NSG mice. Tumors were allowed to grow for 7 days prior to initiating treatment. At day 7 post-implant, mice were randomized into treatment groups (n=5/group) and treatment was initiated per dose route and regimen as described below:
Gemcitabine (Gem) at a low sensitizing dose was administered 25 mg/kg QW by intraperitoneal route. Compound C was administered 10 mg/kg BID by subcutaneous route. Treatments were administered from day 7 through day 70.
Body weight and tumor volume by caliper was measured weekly. At day 70 imaging was performed by administering 150 mg/kg luciferin and measuring whole body […] by IVIS imaging system. Tumors and organs were then harvested and imaged ex vivo.

P-selectin = assay: P-selectin-mediated HL-60 cell binding to immobilized P-selectin/Fc chimera; assay type: cell-based; settings: HL-60 cells, best-fit values
Description: 96 well plates were coated with 10 μg/mL Protein A overnight, then blocked with 2% FBS for 1 hour. 2 μg/mL P-selectin/Fc chimera was bound to the Protein A for 3 hours at 4° C. HL-60 cells (2e5 cells/well, CMFDA labeled) were then layered onto the P-selectin and allowed to bind for 1 hour at room temperature. Wells were treated concurrently with test samples to determine inhibitory binding activity. After 1 hour, unbound cells were washed and bound cells lysed in a 1% Triton-X solution and read on a Fluorimeter at 480/520 nm.

Compound	tumor growth inhibition (tumor volume by caliper) [1]	P-sel IC50 (P-selectin) [µg/mL]
Nc1ccn([C@@H]2O[C@H](CO)[C@@H](O)C2(F)F)c(=O)n1 [Gemcitabine]	no effect on tumor growth	
enoxaparin		64.72
